Source: US20230184749A1, “DRUG RANKING METHOD AND SYSTEM, COMPARISON METHOD FOR DRUG RANKING METHOD AND NEW USE OF DRUG SELECTED USING THE SAME” (National Tsing Hua University, priority 2021, published 2023)
Read-outs that look alike come from different tables or passages of the source.

System: SARS-CoV-2
Experiment: Plaque assay, anti-SARS-CoV-2 activity in Vero E6 cells
Assay type: cell-based, SARS-CoV-2 (hCoV-19/Taiwan/NTU13/2020)
Details: for average percentage of suppression of SARS-CoV-2 replication / plaque reduction compared to the negative control groups (FIG. 13): Vero E6 cells; for average percentage of suppression of SARS-CoV-2 replication: 5 days of incubation; for EC50: Severe acute respiratory syndrome coronavirus 2, Vero C1008, read-out: EC50 (minimal concentration required to reduce 50% of plaque count); for plaque reduction compared to the negative control groups (FIG. 13): at least 10 μM

CC(Cc1ccc(O)cc1)NCC(O)c1cc(O)cc(O)c1 (stereo not shown) [Fenoterol, 5-[1-hydroxy-2-[1-(4-hydroxyphenyl)propan-2-ylamino]ethyl]benzene-1,3-diol]
average percentage of suppression of SARS-CoV-2 replication (10 μM): 17.0%
average percentage of suppression of SARS-CoV-2 replication (40 μM): 68.9%
EC50: 30 µM
plaque reduction compared to the negative control groups (FIG. 13): effective in suppressing SARS-CoV-2 replication

CCCCCN=C(N)N/N=C/c1c[nH]c2ccc(OC)cc12 [Tegaserod, 1-[(E)-(5-methoxy-1H-indol-3-yl)methylideneamino]-2-pentylguanidine]
average percentage of suppression of SARS-CoV-2 replication (10 μM): 54.3%
EC50 (SARS-CoV-2 infected Vero E6 cells, regression analysis of dose-response curves): < 10 µM
plaque reduction compared to the negative control groups (FIG. 13): effective in suppression SARS-CoV-2 replication
